Test results as given in patent US20090270407A1, “FUNGICIDAL ISOXAZOLIDINES” (E. I. DU PONT DE NEMOURS AND COMPANY, priority 2008, published 2009).
Like-named read-outs stand apart in the source and are kept apart here. Marks after values point to notes of the source that are not given here.

What was measured:
[1] = test system: Septoria tritici; assay: Test D: wheat leaf blotch, preventive spray on wheat seedlings, visual disease rating; type: in vivo; conditions: 100 = 100 % disease control, 0 = no disease control relative to controls
Excerpt: A dash (−) indicates no test results.

[2] = test system: Phytophthora infestans; type: in vivo; conditions: 100 = 100 % disease control, 0 = no disease control relative to controls
[3] = test system: Puccinia recondita f. sp. tritici; assay: Test B: wheat leaf rust, preventive spray on wheat seedlings, visual disease rating; conditions: 100 = 100 % disease control, 0 = no disease control relative to controls
[4] = test system: Botrytis cinerea; assay: Test E: tomato Botrytis, preventive spray on tomato seedlings, visual disease rating; conditions: 100 = 100 % disease control, 0 = no disease control relative to controls
Excerpt: General protocol for preparing test suspensions for Tests A-I: The test compounds were first dissolved in acetone in an amount equal to 3% of the final volume and then suspended at the desired concentration (in ppm) in acetone and purified water (50/50 mix) containing 250 ppm of the surfactant Trem® 014 (polyhydric alcohol esters). The resulting test suspensions were then used in Tests A-I. Spraying a 200 ppm test suspension to the point of run-off on the test plants was the equivalent of a rate of 500 g/ha.
The test suspension was sprayed to the point of run-off on tomato seedlings. The following day the seedlings were inoculated with a spore suspension of Botrytis cinerea (the causal agent of tomato Botrytis) and incubated in saturated atmosphere at 20° C. for 48 h, and then moved to a growth chamber at 24° C. for 3 additional days, after which time visual disease ratings were made.
(§1) All results are for 200 ppm except where followed by “*” which indicates 40 ppm.

[5] = test system: Septoria nodorum; assay: Test C: wheat glume blotch, preventive spray on wheat seedlings, visual disease rating; conditions: 100 = 100 % disease control, 0 = no disease control relative to controls
Protocol: (An asterisk “*” next to the rating value indicates a 40 ppm test suspension.)
The test suspension was sprayed to the point of run-off on wheat seedlings. The following day the seedlings were inoculated with a spore suspension of Septoria nodorum (the causal agent of wheat glume blotch) and incubated in a saturated atmosphere at 20° C. for 48 h, and then moved to a growth chamber at 20° C. for 7 days, after which time visual disease ratings were made.
(§2) A dash (−) indicates no test results. All results are for 200 ppm except where followed by “*” which indicates 40 ppm.

[6] = test system: Erysiphe graminis f. sp. tritici; assay: Test A: wheat powdery mildew, preventive spray on wheat seedlings, visual disease rating; conditions: 100 = 100 % disease control, 0 = no disease control relative to controls
Excerpt: (§3) General protocol for preparing test suspensions for Tests A-I: The test compounds were first dissolved in acetone in an amount equal to 3% of the final volume and then suspended at the desired concentration (in ppm) in acetone and purified water (50/50 mix) containing 250 ppm of the surfactant Trem® 014 (polyhydric alcohol esters). The resulting test suspensions were then used in Tests A-I. Spraying a 200 ppm test suspension to the point of run-off on the test plants was the equivalent of a rate of 500 g/ha. (An asterisk “*” next to the rating value indicates a 40 ppm test suspension.)
The test suspension was sprayed to the point of run-off on wheat seedlings. The following day the seedlings were inoculated with a spore dust of Erysiphe graminis f. sp. tritici (the causal agent of wheat powdery mildew) and incubated in a growth chamber at 20° C. for 8 days, after which time visual disease ratings were made.

[7] = test system: Alternaria solani; assay: Test F: tomato early blight, preventive spray on tomato seedlings, visual disease rating; conditions: 100 = 100 % disease control, 0 = no disease control relative to controls
Excerpt: as §3
The test suspension was sprayed to the point of run-off on tomato seedlings. The following day the seedlings were inoculated with a spore suspension of Alternaria solani (the causal agent of tomato early blight) and incubated in a saturated atmosphere at 27° C. for 48 h, and then moved to a growth chamber at 20° C. for 5 days, after which time visual disease ratings were made.
as §2

[8] = test system: Plasmopara viticola; assay: Test I: grape downy mildew, spray on grape seedlings after inoculation, visual disease rating; conditions: 100 = 100 % disease control, 0 = no disease control relative to controls
Excerpt: as §3
Grape seedlings were inoculated with a spore suspension of Plasmopara viticola (the causal agent of grape downy mildew) and incubated in a saturated atmosphere at 20° C. for 24 h. After a short drying period, the test suspension was sprayed to the point of run-off on the grape seedlings and then moved to a growth chamber at 20° C. for 6 days, after which time the test units were placed back into a saturated atmosphere at 20° C. for 24 h. Upon removal, visual disease ratings were made.
as §1

[9] = test system: Rhizoctonia oryzae; assay: Test G: turf brown patch, preventive spray on creeping bent grass seedlings, visual disease rating; conditions: 100 = 100 % disease control, 0 = no disease control relative to controls
Protocol: The test suspension was sprayed to the point of run-off on creeping bent grass seedlings. The following day the seedlings were inoculated with a spore suspension of Rhizoctonia oryzae (the causal agent of turf brown patch) and incubated in a saturated atmosphere at 27° C. for 48 h, and then moved to a growth chamber at 27° C. for 3 days, after which time visual disease ratings were made.
as §2

Row | SMILES | Test D disease control rating ([1]; 40 ppm (marked *)) | Test H disease control rating ([2]; 40 ppm (marked *)) | Test B disease control rating ([3]; 40 ppm (marked *)) | Test E disease control rating ([4]; 40 ppm (marked *)) | Test C disease control rating ([5]; 40 ppm (marked *)) | Test A disease control rating ([6]; 40 ppm (marked *)) | Test F disease control rating ([7]; 40 ppm (marked *)) | Test I disease control rating ([8]; 40 ppm (marked *)) | Test G disease control rating ([9]; 40 ppm (marked *)) | Test D disease control rating ([1]; 200 ppm) | Test H disease control rating ([2]; 200 ppm) | Test B disease control rating ([3]; 200 ppm) | Test E disease control rating ([4]; 200 ppm) | Test C disease control rating ([5]; 200 ppm) | Test A disease control rating ([6]; 200 ppm) | Test F disease control rating ([7]; 200 ppm) | Test I disease control rating ([8]; 200 ppm) | Test G disease control rating ([9]; 200 ppm) | melting point
1 | Cc1ccc(-c2ccc(C3CC(c4cccnc4)(C(F)(F)F)ON3C)cc2)cc1 (racemic) [Compound 25] | 86* % | 0* % | 0* % | 71* % | 0* % | 100* % | 0* % | 0* % | 0* % |  |  |  |  |  |  |  |  |  | 
2 | Cc1ccc(-c2ccc(C3CC(c4cccnc4)(C(F)(F)F)ON3C)cc2)cc1 (racemic) [Compound 26] | 75* % | 0* % | 0* % | 0* % | 0* % | 96* % | 0* % | 0* % | 0* % |  |  |  |  |  |  |  |  |  | 
3 | CN1OC(c2cccnc2)(C(F)(F)F)CC1c1ccc(Br)cc1 (racemic) [Compound 29] | 76* % | 0* % | 0* % | 0* % | 67* % | 98* % | 83* % | 0* % | 0* % |  |  |  |  |  |  |  |  |  | 
4 | CN1OC(c2cccnc2)(C(F)(F)F)CC1c1ccc(Br)cc1 (racemic) [Compound 30] |  |  |  |  |  |  |  |  |  | 83% | 0% | 89% | 0% | 92% | 100% | 0% | 58% | 0% | 
5 | Cc1cccc(-c2ccc(C3CC(c4cccnc4)(C(F)(F)F)ON3C)cc2)c1C (racemic) [Compound 31] | 50* % | 0* % |  | 0* % | 0* % | 98* % | 0* % |  | 0* % |  |  | 0% |  |  |  |  | 0% |  | 
6 | Cc1cccc(-c2ccc(C3CC(c4cccnc4)(C(F)(F)F)ON3C)cc2)c1C (racemic) [Compound 32] |  |  |  |  |  |  |  |  |  | 85% | 0% | 0% | 0% | 0% | 97% | 0% | 9% | 0% | 
7 | CN1O[C@](C)(c2cnccn2)C[C@@H]1c1ccc(-c2ccccc2)cc1 (relative stereo) [Compound 21, rel-2-[(3R,5S)-3-[1,1′-biphenyl]-4-yl-2,5-dimethyl-5-isoxazolidinyl]pyrazine] | 95* % | 0* % | 0* % | 0* % | 0* % | 97* % | 62* % | 0* % | 0* % |  |  |  |  |  |  |  |  |  | 
8 | CN1O[C@@](C)(c2cnccn2)C[C@@H]1c1ccc(-c2ccccc2)cc1 (relative stereo) [Compound 22] | 97* % | 0* % | 0* % | 0* % | 0* % | 86* % | 0* % | 0* % | 0* % |  |  |  |  |  |  |  |  |  | 
9 | CN1O[C@@](c2cccnc2)(C(F)(F)F)C[C@@H]1c1ccc(I)cc1 (relative stereo) [Compound 27, rel-3-[(3R,5S)-3-(4-iodophenyl)-2-methyl-5-(trifluoromethyl)-5-isoxazolidinyl]pyridine] | 95* % | 0* % | 0* % | 0* % | 100* % | 100* % | 100* % | 0* % | 0* % |  |  |  |  |  |  |  |  |  | 80 to 83 °C
10 | CN1O[C@](c2cccnc2)(C(F)(F)F)C[C@@H]1c1ccc(I)cc1 (relative stereo) [Compound 28, rel-3-[(3R,5R)-3-(4-iodophenyl)-2-methyl-5-(trifluoromethyl)-5-isoxazolidinyl]pyridine] | 88* % | 0* % | 0* % | 0* % | 33* % | 99* % | 0* % | 0* % | 0* % |  |  |  |  |  |  |  |  |  | 108 to 110 °C
11 | CN1O[C@@](C)(c2cccnc2)C[C@@H]1c1ccc(-n2ccc(C(F)(F)F)n2)cc1 (relative stereo) [Compound 36, rel-3-[(3R,5R)-2,5-dimethyl-3-[4-[3-(trifluoromethyl)-1H-pyrazol-1-yl]phenyl]-5-isoxazolidinyl]pyridine] | 73* % | 0* % | 0* % | 22* % | 0* % | 79* % | 23* % | 0* % | 7* % |  |  |  |  |  |  |  |  |  | 
12 | CN1O[C@](C)(c2cccnc2)C[C@@H]1c1ccc(-n2cc(Br)cn2)cc1 (relative stereo) [Compound 37, rel-3-[(3R,5S)-3-[4-(4-bromo-1H-pyrazol-1-yl)phenyl]-2,5-dimethyl-5-isoxazolidinyl]pyridine] | 99* % | 0* % | 74* % |  | 99* % | 95* % | 93* % | 0* % | 0* % |  |  |  | 94% |  |  |  |  |  | 
13 | CN1OC(C)(c2cccnc2)CC1c1ccc(-n2cc(Br)cn2)cc1 (centres unmarked) [Compound 38] | 77* % | 0* % | 0* % | 0* % | 0* % | 0* % | 42* % | 0* % | 0* % |  |  |  |  |  |  |  |  |  | 
